In patent publication US20060252807A1, “Novel ortho-terphenyl inhibitors of p38 kinase and methods of treating inflammatory disorders” (Kalypsys, Inc., priority 2005, published 2006):

Biological target: T1, active p38 alpha enzyme (Upstate Biotechnology) (Homo sapiens, UniProt Q16539)
T1 construct: purchased Upstate Biotechnology
Assay: p38α biochemical assay (ATP turnover, luminescent detection, Cambrex PKlight)
Details: p38α biochemical assay, Table 1 Biological Activity
Description: The p38α biochemical assay employed is based on measurement of total ATP turnover following enzyme incubation with substrate in the presence of ATP with the use of a luminescent detection reagent (Cambrex PKlight). The assays were performed in 1536-well white opaque plates.
The final volume was 7.5005 μL as prepared prepared from the addition of 5 ul of kinase reaction (p38 alpah+MapkapK2+ATP) with 0.0005 μL compound dissolved in DMSO, and 2.5 ul of the detection reagent. Assay buffer contains the following reagents to give final concentration in the assay: 200 mM Tris, 100 mM MgCl2, 1.5 mM EGTA, 4 mM CaCl2, 20 mM MOPS, 1 mM EDTA, 1% glycerol, 0.1% B-Mecaptoethanol, and 1 mg/ml BSA. Test compounds are pinned using proprietary pintool technology (Kalypsys, Inc) and delivered as […] amounts into the 5 ul mixture of active p38 alpha enzyme (Upstate Biotechnology) and MapkapK2 (Upstate Biotechnology) whole protein as a substrate for phosphorylation in the presence of 1.4 uM final concentration ATP. Reactions are incubated at 30C for 2 hours and detection reagent is added in 2.5 ul/well amounts. Assay is read using a Perkin Elmer Viewlux.

T1 sequence (Q16539 whole entry): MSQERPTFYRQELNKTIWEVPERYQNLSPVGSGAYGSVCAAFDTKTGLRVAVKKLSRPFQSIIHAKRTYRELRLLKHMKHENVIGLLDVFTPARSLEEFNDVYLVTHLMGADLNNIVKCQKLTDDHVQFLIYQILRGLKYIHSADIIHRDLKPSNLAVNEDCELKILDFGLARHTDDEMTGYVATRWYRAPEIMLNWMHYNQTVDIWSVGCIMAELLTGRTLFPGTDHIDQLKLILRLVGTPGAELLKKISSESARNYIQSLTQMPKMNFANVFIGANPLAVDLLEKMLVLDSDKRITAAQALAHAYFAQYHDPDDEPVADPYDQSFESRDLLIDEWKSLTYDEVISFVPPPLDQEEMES

IC50 [nM]	SMILES
≤ 1000	CCNC(=O)c1csc(-c2c(-c3ccc(F)cc3)n[nH]c2C2CCNCC2)n1 [Example 63, 2-|3-(4-Fluoro-phenyl)-5-piperidin-4-yl-1H-pyrazol-4-yl|-thiazole-4-carboxylic acid ethylamide]
≤ 1000	C#CCNC(=O)c1csc(-c2c(-c3ccc(F)cc3)n[nH]c2C2CCNCC2)n1 [Example 65, 2-|3-(4-Fluoro-phenyl)-5-piperidin-4-yl-1H-pyrazol-4-yl|-thiazole-4-carboxylic acid prop-2-ynylamide]
≤ 1000	O=C(NCc1cccnc1)c1csc(-c2c(-c3ccc(F)cc3)n[nH]c2C2CCNCC2)n1 [Example 67, 2-|3-(4-Fluoro-phenyl)-5-piperidin-4-yl-1H-pyrazol-4-yl|-thiazole-4-carboxylic acid (pyridin-3-ylmethyl)-amide]
≤ 1000	O=C(NCC1CC1)c1csc(-c2c(-c3ccc(F)cc3)n[nH]c2C2CCNCC2)n1 [Example 69, 2-|3-(4-Fluoro-phenyl)-5-piperidin-4-yl-1H-pyrazol-4-yl|-thiazole-4-carboxylic acid cyclopropylmethyl-amide]
> 1000	O=C(O)c1csc(-c2c(-c3ccc(F)cc3)n[nH]c2C2CCNCC2)n1 [Example 70, 2-(3-(4-fluorophenyl)-5-(piperidin-4-yl)-1H-pyrazol-4-yl)thiazole-4-carboxylic acid]
≤ 1000	CCNC(=O)c1csc(-c2c(-c3ccc(F)cc3)n[nH]c2C)n1 [Example 72, 2-|3-(4-Fluoro-phenyl)-5-methyl-1H-pyrazol-4-yl|-thiazole-4-carboxylic acid ethylamide]
≤ 1000	Cc1[nH]nc(-c2ccc(F)cc2)c1-c1nc(C(=O)NCc2ccc3c(c2)OCO3)cs1 [Example 74, 2-|3-(4-Fluoro-phenyl)-5-methyl-1H-pyrazol-4-yl|-thiazole-4-carboxylic acid (benzo|1,3|dioxol-5-yl methyl)-amide]
≤ 1000	Cc1[nH]nc(-c2ccc(F)cc2)c1-c1nc(C(=O)NCc2ccccn2)cs1 [Example 75, 2-|3-(4-Fluoro-phenyl)-5-methyl-1H-pyrazol-4-yl|-thiazole-4-carboxylic acid (pyridin-2-ylmethyl)-amide]
≤ 1000	Cc1[nH]nc(-c2ccc(F)cc2)c1-c1nc(C(=O)NCc2cccnc2)cs1 [Example 76, 2-|3-(4-Fluoro-phenyl)-5-methyl-1H-pyrazol-4-yl|-thiazole-4-carboxylic acid (pyridin-3-ylmethyl)-amide]
≤ 1000	Cc1[nH]nc(-c2ccc(F)cc2)c1-c1nc(C(=O)NCc2ccncc2)cs1 [Example 77, 2-|3-(4-Fluoro-phenyl)-5-methyl-1H-pyrazol-4-yl|-thiazole-4-carboxylic acid (pyridin-4-ylmethyl)-amide]
≤ 1000	CC(C)NC(=O)c1csc(-c2[nH]c(CN3CCOCC3)nc2-c2ccc(F)cc2)n1 [Example 80, 2-|5-(4-Fluoro-phenyl)-2-morpholin-4-ylmethyl-3H-imidazol-4-yl|-thiazole-4-carboxylic acid isopropylamide]
≤ 1000	CC(C)NC(=O)c1csc(-c2[nH]c(CN(C)C)nc2-c2ccc(F)cc2)n1 [Example 81, 2-|2-Dimethylaminomethyl-5-(4-fluoro-phenyl)-3H-imidazol-4-yl|-thiazole-4-carboxylic acid isopropylamide]
≤ 1000	C#CCNC(=O)c1csc(-c2[nH]c(CN3CCNCC3)nc2-c2ccc(F)cc2)n1 [Example 82, 2-|5-(4-Fluoro-phenyl)-2-piperazin-1-ylmethyl-3H-imidazol-4-yl|-thiazole-4-carboxylic acid prop-2-ynylamide]
≤ 1000	CC(C)NC(=O)c1csc(-c2[nH]c(CN3CCNCC3)nc2-c2ccc(F)cc2)n1 [Example 83, 2-|5-(4-Fluoro-phenyl)-2-piperazin-1-ylmethyl-3H-imidazol-4-yl|-thiazole-4-carboxylic acid isopropylamide]
≤ 1000	CC(C)NC(=O)c1csc(-c2[nH]c(CO)nc2-c2ccc(F)cc2)n1 [Example 84, 2-|5-(4-Fluoro-phenyl)-2-hydroxymethyl-3H-imidazol-4-yl|-thiazole-4-carboxylic acid isopropylamide]
≤ 1000	CC(=O)NCc1nc(-c2ccc(F)cc2)c(-c2nc(C(=O)NC(C)C)cs2)[nH]1 [Example 85, 2-|2-(Acetylamino-methyl)-5-(4-fluoro-phenyl)-3H-imidazol-4-yl|-thiazole-4-carboxylic acid isopropylamide]
≤ 1000	CC(C)NC(=O)c1csc(-c2c(-c3ccc(F)cc3)ncn2C)n1 [Example 86, 2-|5-(4-Fluoro-phenyl)-3-methyl-3H-imidazol-4-yl|-thiazole-4-carboxylic acid isopropylamide]
≤ 1000	C#CCNC(=O)c1csc(-c2c(-c3ccc(F)cc3)ncn2C)n1 [Example 87, 2-|5-(4-Fluoro-phenyl)-3-methyl-3H-imidazol-4-yl|-thiazole-4-carboxylic acid prop-2-ynylamide]
> 1000	CC(C)NC(=O)c1csc(-c2c(-c3ccc(F)cc3)ncn2C2CCN(Cc3ccccc3)CC2)n1 [Example 88, 2-|3-(1-Benzyl-piperidin-4-yl)-5-(4-fluoro-phenyl)-3H-imidazol-4-yl|-thiazole-4-carboxylic acid isopropylamide]
> 1000	C#CCNC(=O)c1csc(-c2c(-c3ccc(F)cc3)ncn2C2CCN(Cc3ccccc3)CC2)n1 [Example 89, 2-|3-(1-Benzyl-piperidin-4-yl)-5-(4-fluoro-phenyl)-3H-imidazol-4-yl|-thiazole-4-carboxylic acid prop-2-ynylamide]
> 1000	CC(C)NC(=O)c1csc(-c2c(-c3ccc(F)cc3)ncn2C2CCN(C(=O)OC(C)(C)C)CC2)n1 [Example 90, 4-|4-(4-Fluoro-phenyl)-5-(4-isopropylcarbamoyl-thiazol-2-yl)-imidazol-1-yl|-piperidine-1-carboxylic acid tert-butyl ester]
≤ 1000	C#CCNC(=O)c1csc(-c2c(-c3ccc(F)cc3)ncn2C2CCNCC2)n1 [Example 92, 2-|5-(4-Fluoro-phenyl)-3-piperidin-4-yl-3H-imidazol-4-yl|-thiazole-4-carboxylic acid prop-2-ynylamide]

IC50 [nM]	SMILES
≤ 1000	C#CCNC(=O)c1csc(-c2c(-c3ccc(F)cc3)ncn2C2CCN(C(=O)CO)CC2)n1 [Example 94, 2-{5-(4-Fluoro-phenyl)-3-|1-(2-hydroxy-acetyl)-piperidin-4-yl|-3H-imidazol-4-yl}-thiazole-4-carboxylic acid prop-2-ynylamide]
> 1000	O=C(O)c1csc(-c2c(-c3ccc(F)cc3)ncn2C2CCNCC2)n1 [Example 95, 2-|5-(4-Fluoro-phenyl)-3-piperidin-4-yl-3H-imidazol-4-yl|-thiazole-4-carboxylic acid]
≤ 1000	CC(C)NC(=O)c1csc(-c2[nH]c(N)nc2-c2ccc(F)cc2)n1 [Example 96, 2-|2-Amino-5-(4-fluoro-phenyl)-3H-imidazol-4-yl|-thiazole-4-carboxylic acid isopropylamide]
> 1000	CC(C)NC(=O)c1csc(-c2c(-c3ccc(F)cc3)nc3ncccn23)n1 [Example 97, 2-|2-(4-Fluoro-phenyl)-imidazo|1,2-a|pyrimidin-3-yl|-thiazole-4-carboxylic acid isopropylamide]
> 1000	CC(C)NC(=O)c1csc(-c2oc(CN)nc2-c2ccc(F)cc2)n1 [Example 98]
> 1000	CC(C)NC(=O)c1csc(-c2oc(CNC(=O)C=O)nc2-c2ccc(F)cc2)n1 [Example 99]
≤ 1000	CC(C)NC(=O)c1csc(-c2oc(CNC(=O)CC#N)nc2-c2ccc(F)cc2)n1 [Example 100]
≤ 1000	CC(C)NC(=O)c1csc(-c2oc(CNC(=O)C(C)O)nc2-c2ccc(F)cc2)n1 (stereo not shown) [Example 101]
≤ 1000	CCC(=O)C(=O)NCc1nc(-c2ccc(F)cc2)c(-c2nc(C(=O)NC(C)C)cs2)o1 [Example 102]
≤ 1000	CC(C)NC(=O)c1csc(-c2oc(CNC(=O)C(C)(C)C)nc2-c2ccc(F)cc2)n1 [Example 103]
≤ 1000	CC(C)CC(=O)NCc1nc(-c2ccc(F)cc2)c(-c2nc(C(=O)NC(C)C)cs2)o1 [Example 104]
≤ 1000	CC(C)NC(=O)c1csc(-c2oc(CNC(=O)c3cnc[nH]3)nc2-c2ccc(F)cc2)n1 [Example 105]
≤ 1000	CC(C)NC(=O)c1csc(-c2oc(CNC(=O)c3ncc[nH]3)nc2-c2ccc(F)cc2)n1 [Example 106]
> 1000	CC(C)NC(=O)c1csc(-c2oc(CNC(=O)C3=CCCC3)nc2-c2ccc(F)cc2)n1 [Example 107]
≤ 1000	CC(C)NC(=O)c1csc(-c2oc(CNC(=O)C(F)(F)F)nc2-c2ccc(F)cc2)n1 [Example 108]
≤ 1000	CC(C)NC(=O)c1csc(-c2oc(CNC(=O)C3CCCO3)nc2-c2ccc(F)cc2)n1 (stereo not shown) [Example 109]
≤ 1000	CC(=O)NCC(=O)NCc1nc(-c2ccc(F)cc2)c(-c2nc(C(=O)NC(C)C)cs2)o1 [Example 110]
> 1000	CC(C)NC(=O)c1csc(-c2oc(CNC(=O)c3ccccc3)nc2-c2ccc(F)cc2)n1 [Example 111]
≤ 1000	CC(C)NC(=O)c1csc(-c2oc(CNC(=O)c3cccnc3)nc2-c2ccc(F)cc2)n1 [Example 112]
≤ 1000	CC(C)NC(=O)c1csc(-c2oc(CNC(=O)c3ccncc3)nc2-c2ccc(F)cc2)n1 [Example 113]
> 1000	CC(C)NC(=O)c1csc(-c2oc(CNC(=O)c3ccccn3)nc2-c2ccc(F)cc2)n1 [Example 114]
